# Publication PMC12155096 (International Journal of Molecular Sciences, 2025)
# Target: human CYP2D6 (Homo sapiens, UniProt P10635)
# Assay: not given
# Settings: not given
# human CYP2D6, sequence (P10635 whole entry): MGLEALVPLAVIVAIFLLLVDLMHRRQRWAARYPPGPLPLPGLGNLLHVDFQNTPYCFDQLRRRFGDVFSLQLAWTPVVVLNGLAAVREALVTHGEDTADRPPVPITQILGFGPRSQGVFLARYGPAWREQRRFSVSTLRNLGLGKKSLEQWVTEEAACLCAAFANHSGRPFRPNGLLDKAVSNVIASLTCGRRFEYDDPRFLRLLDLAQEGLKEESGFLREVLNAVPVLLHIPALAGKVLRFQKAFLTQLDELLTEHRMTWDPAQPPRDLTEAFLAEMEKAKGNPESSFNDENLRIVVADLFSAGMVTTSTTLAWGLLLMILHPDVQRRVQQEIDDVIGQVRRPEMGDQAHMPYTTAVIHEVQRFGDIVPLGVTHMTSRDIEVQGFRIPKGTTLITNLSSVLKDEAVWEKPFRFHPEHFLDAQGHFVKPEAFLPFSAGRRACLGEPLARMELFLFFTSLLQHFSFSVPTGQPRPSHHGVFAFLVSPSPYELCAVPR
row,SMILES,CYP2D6 IC50 (half-maximal inhibitory concentration)
1,O[Si](c1ccccc1)(c1ccccc1)c1ccccc1 [Triphenylsilanol],Inactive
2,COC(=O)C1=C(C)NC(C)=C(C(=O)OCCc2ccc(N3CCN(C(c4ccccc4)c4ccccc4)CC3)cc2)C1c1cccc([N+](=O)[O-])c1 (centres unmarked) [Watanidipine],Inactive
3,O=c1c2ccccc2oc2ccccc12 [Xanthone],Inactive
4,"Clc1ccc(C(c2ccccc2Cl)C(Cl)(Cl)Cl)cc1 (centres unmarked) [o,p'-DDT]",Inactive

# Target: T1, CYP3A4 (Homo sapiens, UniProt P08684)
# T1 sequence (P08684 whole entry): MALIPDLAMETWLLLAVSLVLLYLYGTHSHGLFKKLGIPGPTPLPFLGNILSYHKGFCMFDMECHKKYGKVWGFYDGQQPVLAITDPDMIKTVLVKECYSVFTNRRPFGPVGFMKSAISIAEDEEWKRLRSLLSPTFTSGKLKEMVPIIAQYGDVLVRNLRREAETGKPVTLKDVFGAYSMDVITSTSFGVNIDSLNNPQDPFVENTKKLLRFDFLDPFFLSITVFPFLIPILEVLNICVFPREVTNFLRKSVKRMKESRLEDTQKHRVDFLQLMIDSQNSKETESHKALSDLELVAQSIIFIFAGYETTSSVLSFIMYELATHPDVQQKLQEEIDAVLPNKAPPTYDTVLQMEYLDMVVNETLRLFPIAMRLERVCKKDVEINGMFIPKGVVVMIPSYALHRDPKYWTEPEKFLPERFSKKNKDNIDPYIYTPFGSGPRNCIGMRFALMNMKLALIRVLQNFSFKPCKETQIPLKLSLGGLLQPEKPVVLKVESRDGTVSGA
# Assay: not given
# Settings: not given
SMILES,CYP3A4 IC50,CYP3A4 IC50 (half-maximal inhibitory concentration),CYP3A4 Efficacy (in parenthesis)
Oc1ccc2[nH]cc(CCCCN3CC=C(c4ccccc4)CC3)c2c1 [Roxindole],1.91 ± 0.48 (802 ± 30) µM,–,–
O[Si](c1ccccc1)(c1ccccc1)c1ccccc1 [Triphenylsilanol],–,13.71 ± 1.89 (172 ± 26) µM,–
"Clc1ccc(C(c2ccccc2Cl)C(Cl)(Cl)Cl)cc1 (centres unmarked) [o,p'-DDT]",–,11.59 ± 3.23 (99 ± 19) µM,11.59 ± 3.23 (99 ± 19) %

# Target: T1, CYP3A4
# Assay: biochemical
# Settings: not given
SMILES,IC50,AC50
COC(=O)C1=C(C)NC(C)=C(C(=O)OCCc2ccc(N3CCN(C(c4ccccc4)c4ccccc4)CC3)cc2)C1c1cccc([N+](=O)[O-])c1 (centres unmarked) [Watanidipine],2.38 µM,–
O=c1c2ccccc2oc2ccccc12 [Xanthone],–,14.5 µM

# Same assay, conditions: CYP3A4 AC50 (half-maximal activity concentration)
row,SMILES,AC50
1,Oc1ccc2[nH]cc(CCCCN3CC=C(c4ccccc4)CC3)c2c1 [Roxindole],1.91 µM
2,O[Si](c1ccccc1)(c1ccccc1)c1ccccc1 [Triphenylsilanol],13.7 µM
3,"Clc1ccc(C(c2ccccc2Cl)C(Cl)(Cl)Cl)cc1 (centres unmarked) [o,p'-DDT]",11.6 µM

# Same assay, conditions: CYP3A4 IC50 (half-maximal inhibitory concentration)
row,SMILES,IC50
1,COc1ccc(-c2ccccc2)cc1NNC(=O)OC(C)C [Bifenazate],1.51 µM

# Target: T2, human CYP1A2 (Homo sapiens, UniProt P05177)
# T2 sequence (P05177 1-516): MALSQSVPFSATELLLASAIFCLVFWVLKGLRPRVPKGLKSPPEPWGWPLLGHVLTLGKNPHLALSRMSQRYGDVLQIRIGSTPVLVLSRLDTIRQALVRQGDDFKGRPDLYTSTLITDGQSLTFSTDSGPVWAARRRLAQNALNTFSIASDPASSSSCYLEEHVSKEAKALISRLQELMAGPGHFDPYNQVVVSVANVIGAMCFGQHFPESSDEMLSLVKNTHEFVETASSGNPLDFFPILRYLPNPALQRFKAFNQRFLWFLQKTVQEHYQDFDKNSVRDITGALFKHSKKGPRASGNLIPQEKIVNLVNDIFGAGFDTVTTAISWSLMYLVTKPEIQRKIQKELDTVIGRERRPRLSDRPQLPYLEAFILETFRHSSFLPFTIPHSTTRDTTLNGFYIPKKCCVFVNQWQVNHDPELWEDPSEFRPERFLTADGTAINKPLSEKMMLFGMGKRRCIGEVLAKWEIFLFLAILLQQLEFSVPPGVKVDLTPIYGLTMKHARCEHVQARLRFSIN
# Assay: not given
# Settings: not given
SMILES,CYP1A2 AC50 (half-maximal activity concentration),CYP1A2 IC50 (half-maximal inhibitory concentration)
O[Si](c1ccccc1)(c1ccccc1)c1ccccc1 [Triphenylsilanol],Inconclusive inhibitor,Inactive
"Clc1ccc(C(c2ccccc2Cl)C(Cl)(Cl)Cl)cc1 (centres unmarked) [o,p'-DDT]",–,Inactive

# Target: T2, human CYP1A2
# Assay: biochemical
# Settings: not given
SMILES,IC50,AC50
COC(=O)C1=C(C)NC(C)=C(C(=O)OCCc2ccc(N3CCN(C(c4ccccc4)c4ccccc4)CC3)cc2)C1c1cccc([N+](=O)[O-])c1 (centres unmarked) [Watanidipine],14.6 µM,–
O=c1c2ccccc2oc2ccccc12 [Xanthone],0.5 µM,0.5 µM

# Same assay, conditions: CYP1A2 AC50 (half-maximal activity concentration)
row,SMILES,AC50
1,Oc1ccc2[nH]cc(CCCCN3CC=C(c4ccccc4)CC3)c2c1 [Roxindole],22.4 µM

# Same assay, conditions: CYP1A2 IC50
row,SMILES,IC50
1,Oc1ccc2[nH]cc(CCCCN3CC=C(c4ccccc4)CC3)c2c1 [Roxindole],22.4 µM

# Same assay, conditions: CYP1A2 IC50 (half-maximal inhibitory concentration)
row,SMILES,IC50
1,COc1ccc(-c2ccccc2)cc1NNC(=O)OC(C)C [Bifenazate],4.75 µM

# Target: Photinus pyralis (firefly) luciferase (Photinus pyralis, UniProt P08659)
# Sequence (P08659 whole entry): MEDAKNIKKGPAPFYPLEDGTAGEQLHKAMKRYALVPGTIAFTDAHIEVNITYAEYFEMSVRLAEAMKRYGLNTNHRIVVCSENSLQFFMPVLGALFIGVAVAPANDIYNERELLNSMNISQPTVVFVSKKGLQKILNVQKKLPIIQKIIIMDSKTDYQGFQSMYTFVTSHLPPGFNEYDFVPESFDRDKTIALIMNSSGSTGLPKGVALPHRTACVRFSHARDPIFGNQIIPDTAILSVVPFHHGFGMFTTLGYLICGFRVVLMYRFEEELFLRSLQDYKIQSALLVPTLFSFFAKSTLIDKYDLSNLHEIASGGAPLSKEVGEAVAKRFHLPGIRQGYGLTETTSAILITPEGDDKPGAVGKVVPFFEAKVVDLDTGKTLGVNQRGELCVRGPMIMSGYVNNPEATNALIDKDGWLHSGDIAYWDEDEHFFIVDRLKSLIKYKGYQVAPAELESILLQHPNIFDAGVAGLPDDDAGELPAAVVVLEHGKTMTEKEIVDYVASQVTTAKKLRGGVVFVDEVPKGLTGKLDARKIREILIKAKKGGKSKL
# Assay: biochemical
# Format: biochemical
# Settings: not given
SMILES,Luciferase IC50 (half-maximal inhibitory concentration),Luciferase IC50,IC50
COc1ccc(-c2ccccc2)cc1NNC(=O)OC(C)C [Bifenazate],Inactive,–,–
Oc1ccc2[nH]cc(CCCCN3CC=C(c4ccccc4)CC3)c2c1 [Roxindole],–,Inactive,–
O[Si](c1ccccc1)(c1ccccc1)c1ccccc1 [Triphenylsilanol],Inactive,–,–
COC(=O)C1=C(C)NC(C)=C(C(=O)OCCc2ccc(N3CCN(C(c4ccccc4)c4ccccc4)CC3)cc2)C1c1cccc([N+](=O)[O-])c1 (centres unmarked) [Watanidipine],Inactive,–,–
O=c1c2ccccc2oc2ccccc12 [Xanthone],–,–,23.6 µM
"Clc1ccc(C(c2ccccc2Cl)C(Cl)(Cl)Cl)cc1 (centres unmarked) [o,p'-DDT]",Inactive,–,–

# Target: T3, human CYP2C9 (Homo sapiens, UniProt P11712)
# T3 sequence (P11712 whole entry): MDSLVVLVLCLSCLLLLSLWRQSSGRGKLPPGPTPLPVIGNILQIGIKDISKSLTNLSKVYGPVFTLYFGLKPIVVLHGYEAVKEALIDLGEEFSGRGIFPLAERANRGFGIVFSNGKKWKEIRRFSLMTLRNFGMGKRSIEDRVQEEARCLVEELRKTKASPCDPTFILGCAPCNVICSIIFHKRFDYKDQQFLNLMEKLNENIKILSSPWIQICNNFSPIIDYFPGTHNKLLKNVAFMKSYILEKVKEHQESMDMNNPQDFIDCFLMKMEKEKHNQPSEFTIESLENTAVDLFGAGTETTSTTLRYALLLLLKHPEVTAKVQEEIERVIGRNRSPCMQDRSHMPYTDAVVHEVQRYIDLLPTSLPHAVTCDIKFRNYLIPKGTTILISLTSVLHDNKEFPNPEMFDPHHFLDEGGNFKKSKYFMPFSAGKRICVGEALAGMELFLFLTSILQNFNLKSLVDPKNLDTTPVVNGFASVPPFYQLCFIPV
# Assay: not given
# Settings: human
row,SMILES,CYP2C9 Efficacy (in parenthesis)
1,"Clc1ccc(C(c2ccccc2Cl)C(Cl)(Cl)Cl)cc1 (centres unmarked) [o,p'-DDT]",10.87 ± 3.7 (-95 ± 6) %

# Target: T4, human CYP2C19 (Homo sapiens, UniProt P33261)
# T4 sequence (P33261 whole entry): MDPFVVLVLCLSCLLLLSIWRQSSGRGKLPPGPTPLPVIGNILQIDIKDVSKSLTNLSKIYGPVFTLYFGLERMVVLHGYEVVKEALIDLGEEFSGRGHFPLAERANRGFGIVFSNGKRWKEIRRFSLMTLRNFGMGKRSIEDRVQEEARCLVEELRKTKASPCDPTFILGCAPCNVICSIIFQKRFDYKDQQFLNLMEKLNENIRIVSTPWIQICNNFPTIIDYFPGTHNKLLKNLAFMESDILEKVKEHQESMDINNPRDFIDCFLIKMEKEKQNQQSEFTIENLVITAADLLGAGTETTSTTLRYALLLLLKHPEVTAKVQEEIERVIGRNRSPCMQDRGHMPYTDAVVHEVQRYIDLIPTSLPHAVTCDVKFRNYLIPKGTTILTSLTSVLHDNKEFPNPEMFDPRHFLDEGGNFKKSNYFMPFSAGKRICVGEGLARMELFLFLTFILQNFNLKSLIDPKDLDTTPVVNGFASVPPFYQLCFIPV
# Assay: biochemical
# Settings: not given
SMILES,IC50,AC50
COC(=O)C1=C(C)NC(C)=C(C(=O)OCCc2ccc(N3CCN(C(c4ccccc4)c4ccccc4)CC3)cc2)C1c1cccc([N+](=O)[O-])c1 (centres unmarked) [Watanidipine],8.39 µM,–
O=c1c2ccccc2oc2ccccc12 [Xanthone],29.7 µM,29.7 µM

# Same assay, conditions: CYP2C19 AC50 (half-maximal activity concentration)
row,SMILES,AC50
1,O[Si](c1ccccc1)(c1ccccc1)c1ccccc1 [Triphenylsilanol],0.57 µM
2,"Clc1ccc(C(c2ccccc2Cl)C(Cl)(Cl)Cl)cc1 (centres unmarked) [o,p'-DDT]",0.35 µM

# Same assay, conditions: CYP2C19 IC50 (half-maximal inhibitory concentration)
row,SMILES,IC50
1,COc1ccc(-c2ccccc2)cc1NNC(=O)OC(C)C [Bifenazate],0.49 µM
2,O[Si](c1ccccc1)(c1ccccc1)c1ccccc1 [Triphenylsilanol],0.57 µM
3,"Clc1ccc(C(c2ccccc2Cl)C(Cl)(Cl)Cl)cc1 (centres unmarked) [o,p'-DDT]",0.35 µM

# Target: T3, human CYP2C9
# Assay: biochemical
# Settings: not given
SMILES,IC50,AC50
COC(=O)C1=C(C)NC(C)=C(C(=O)OCCc2ccc(N3CCN(C(c4ccccc4)c4ccccc4)CC3)cc2)C1c1cccc([N+](=O)[O-])c1 (centres unmarked) [Watanidipine],0.49 µM,–
O=c1c2ccccc2oc2ccccc12 [Xanthone],35.7 µM,35.7 µM

# Same assay, conditions: CYP2C9 AC50 (half-maximal activity concentration)
row,SMILES,AC50
1,Oc1ccc2[nH]cc(CCCCN3CC=C(c4ccccc4)CC3)c2c1 [Roxindole],21.2 µM
2,O[Si](c1ccccc1)(c1ccccc1)c1ccccc1 [Triphenylsilanol],0.53 µM
3,"Clc1ccc(C(c2ccccc2Cl)C(Cl)(Cl)Cl)cc1 (centres unmarked) [o,p'-DDT]",10.9 µM

# Same assay, conditions: CYP2C9 IC50
row,SMILES,IC50
1,Oc1ccc2[nH]cc(CCCCN3CC=C(c4ccccc4)CC3)c2c1 [Roxindole],21.2 µM

# Same assay, conditions: CYP2C9 IC50 (half-maximal inhibitory concentration)
row,SMILES,IC50
1,COc1ccc(-c2ccccc2)cc1NNC(=O)OC(C)C [Bifenazate],2.33 µM
2,O[Si](c1ccccc1)(c1ccccc1)c1ccccc1 [Triphenylsilanol],0.53 µM
3,"Clc1ccc(C(c2ccccc2Cl)C(Cl)(Cl)Cl)cc1 (centres unmarked) [o,p'-DDT]",10.9 µM

# Target: T4, human CYP2C19
# Assay: not given
# Settings: not given
row,SMILES,CYP2C19 IC50
1,Oc1ccc2[nH]cc(CCCCN3CC=C(c4ccccc4)CC3)c2c1 [Roxindole],Inactive

# Same assay, conditions: human
row,SMILES,CYP2C19 Efficacy (in parenthesis)
1,"Clc1ccc(C(c2ccccc2Cl)C(Cl)(Cl)Cl)cc1 (centres unmarked) [o,p'-DDT]",0.35 ± 0.15 (-129 ± 3) %
